Test results as given in US20090253692A1, “CRYSTALLINE FORM OF N-[[4-FLUORO-2-(5-METHYL-1H-1,2,4-TRIAZOL-1-YL)PHENYL]METHYL]-4,6,7,9-TETRAHYDRO-3-HYDROXY-9,9-DIMETHYL-4-OXO-PYRIMIDO[2,1-C][1,4]OXAZINE-2-CARBOXAMIDE, SODIUM SALT MONOHYDRATE” (Bristol-Myers Squibb Company, priority 2008, published 2009).
“Also recorded” adds a separate entry of the source. Like-named read-outs stand apart in the source and are kept apart here.

Key:
[1] = Dust hazard analysis: ignition sensitivity of dust cloud; assay type: physicochemical; settings: for Susceptibility to ignition as a dust cloud: result in words
Excerpt: (§1) “μm” means micrometer. “gm” means gram. “cc” means cubic centimeter. “gm/cc” means gram per cubic centimeter. “Kst” is the deflagration index of a dust expressed in bar-meter per second. “bar-m/s” means bar meter per sec. “bar/s” means bar per second. “mJ” means millijoules. “St” is the geneal classification designation for explosible dusts: “St-2” is classified as a strong explosion designation and has Kst>200 bar-m/sec; “St-1” is not classified as a strong explosion and has Kst<200 bar-m/sec.
(§2) Twenty liter sphere testing (see Proust, C.; Accorsi, A.; Dupont, L. Journal of Loss prevention in the Process Industries, vol. 20, 2007.) places the sample in the St-2 (strong explosion) class with a Kst value of 238 bar-m/s.
(§3) Therefore, twenty liter sphere testing was not required.

[2] = Dust hazard analysis: explosion severity (twenty liter sphere testing), Kst and St classification; assay type: physicochemical; settings: for Explosion Severity (Max Pressure) / Explosion Severity (Max rate): dust explosion risk; for St Classification: general classification designation for explosible dusts
Excerpt: as §1, §2, §3

[3] = Dust hazard analysis: charge decay time estimation; assay type: physicochemical
[4] = Particle size analysis using an Aerosizer instrument; assay type: physicochemical
Bulk and true densities = assay type: physicochemical
[5] = Moisture content by weight loss in vacuum oven; assay type: physicochemical; settings: 5 gm in a vacuum oven at 60° C. for six hours
Method: Particle analysis. […] The sample was checked for moisture content by placing 5 gm in a vacuum oven at 60° C. for six hours and checking weight loss. The free acid lost 0.22% of its initial weight. […] The sample was checked for moisture content by placing 5 gm in a vacuum oven at 60° C. for six hours and checking weight loss. The salt monohydrate lost 0.18% of its initial weight.

HIV integrase = HIV integrase (Human immunodeficiency virus type 1 group M subtype B, UniProt P04585); settings: result in words, see U.S. Pat. No. 7,176,196, sodium salt monohydrate, cited from earlier work

Structure (SMILES) | Minimum Ignition Energy ([1]; dust explosion risk) | Minimum Ignition Temperature ([1]; dust explosion risk) | Susceptibility to ignition as a dust cloud [1] | Explosion Severity (Max Pressure) [2] | Explosion Severity (Max rate) [2] | St Classification [2] | Explosion characteristics ([2]; result in words) | Charge Decay Time Estimation [3] | Particle size, 95% of sample below [4] | Particle size, mean value [4] | Bulk density (Bulk and true densities) | True density (Bulk and true densities) | Moisture content: loss of initial weight [5] | Binding to and antagonism / inhibition of HIV integrase (HIV integrase; listed as Compound I) | Binding to and antagonism / inhibition of HIV integrase (HIV integrase) | Kst value ([2]; deflagration index of a dust) | Kst value ([2]; twenty liter sphere testing)
Cc1ncnn1-c1cc(F)ccc1CNC(=O)c1nc2n(c(=O)c1[O-])CCOC2(C)C.[Na+] [Compound (I), N-[[4-fluoro-2-(5-methyl-1H-1,2,4-triazol-1-yl)phenyl]methyl]-4,6,7,9-tetrahydro-3-hydroxy-9,9-dimethyl-4-oxo-pyrimido[2,1-c][1,4]oxazine-2-carboxamide, sodium salt monohydrate] | >500 mJ | >600 °C | low susceptibility to ignition as a dust cloud | 1.5 bar | 154 bar/s | St-1 (“St-1” is not classified as a strong explosion and has Kst<200 bar-m/sec) | weak to moderate explosion characteristics | 33 min | < 33.6 μm | 14.8 μm | 0.42 gm/cc | 1.53 gm/cc | 0.18% | demonstrated inhibition of HIV integrase | potently bind to and act as an antagonist to HIV integrase | – | –
Cc1ncnn1-c1cc(F)ccc1CNC(=O)c1nc2n(c(=O)c1O)CCOC2(C)C [Free acid] | – | – | extremely susceptible to igniting as a dust cloud; also recorded: high susceptibility to ignition and risk for explosion | 8.2 bar | 878 bar/s | St-2 (“St-2” is classified as a strong explosion designation and has Kst>200 bar-m/sec) | – | 330 min | < 32.9 μm | 16.3 μm | 0.34 gm/cc | 1.40 gm/cc | 0.22% | – | – | 238 bar · m/s | 238 bar-m/s
